Assay results taken from ChEMBL document CHEMBL1201862, “PubChem BioAssay data set” (2004).
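Method: 48-hour compound exposure of cells in 96-well plates, five concentrations, linear interpolation of endpoints. GI50 is the concentration that inhibits growth by half.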 The source made the active and inactive calls. Cut-off read from the data, not from the text of the source: active = GI50 up to about 1.1 µM and inactive = higher.

What was measured:
Assay in all cases: NCI-60 cell line screen, 48 h
SNB-19 = test system: SNB-19
SR = test system: SR
IGROV-1 = test system: IGROV-1
UACC-62 = test system: UACC-62
A498 = test system: A498
MOLT-4 = test system: MOLT-4
SW-620 = test system: SW-620
ACHN = test system: ACHN
NCI-H226 = test system: NCI-H226
A549 = test system: A549
NCI-H522 = test system: NCI-H522
SF-268 = test system: SF-268
OVCAR-5 = test system: OVCAR-5
786-0 = test system: 786-0
LOX IMVI = test system: LOX IMVI
NCI/ADR-RES = test system: NCI/ADR-RES
HOP-92 = test system: HOP-92
SK-MEL-5 = test system: SK-MEL-5
OVCAR-8 = test system: OVCAR-8
HOP-62 = test system: HOP-62
Hs-578T = test system: Hs-578T
NCI-H23 = test system: NCI-H23
UACC-257 = test system: UACC-257
HCT-116 = test system: HCT-116
HCT-15 = test system: HCT-15
T47D = test system: T47D
SF-295 = test system: SF-295
BT-549 = test system: BT-549
DU-145 = test system: DU-145
COLO 205 = test system: COLO 205
RPMI-8226 = test system: RPMI-8226
RXF 393 = test system: RXF 393
SNB-75 = test system: SNB-75
HT-29 = test system: HT-29
MDA-MB-435 = test system: MDA-MB-435
NCI-H460 = test system: NCI-H460
CCRF-CEM = test system: CCRF-CEM
TK-10 = test system: TK-10
SN12C = test system: SN12C
K562 = test system: K562
M14 = test system: M14
SK-MEL-2 = test system: SK-MEL-2
MDA-N = test system: MDA-N
SK-MEL-28 = test system: SK-MEL-28
OVCAR-3 = test system: OVCAR-3
KM12 = test system: KM12
SK-OV-3 = test system: SK-OV-3
MDA-MB-231 = test system: MDA-MB-231
CAKI-1 = test system: CAKI-1
HL-60 = test system: HL-60
U-251 = test system: U-251
OVCAR-4 = test system: OVCAR-4
EKVX = test system: EKVX
PC-3 = test system: PC-3
MCF7 = test system: MCF7
SF-539 = test system: SF-539
HCC 2998 = test system: HCC 2998
UO-31 = test system: UO-31
Malme-3M = test system: Malme-3M

Measured: GI50

c1ccc(-c2cc(C3CO3)c3ccccc3n2)cc1 (stereo unspecified)
inactive: SNB-19 29.1 µM | SR 18.3 µM | IGROV-1 17.9 µM | UACC-62 18.5 µM | A498 19.7 µM | MOLT-4 23.7 µM | SW-620 27.9 µM | ACHN 18.4 µM | NCI-H226 19.1 µM | A549 20.1 µM | NCI-H522 3.99 µM | SF-268 20 µM | OVCAR-5 22 µM | 786-0 15.5 µM | LOX IMVI 18.6 µM | NCI/ADR-RES 24.3 µM | HOP-92 20 µM | SK-MEL-5 16.7 µM | OVCAR-8 20 µM | HOP-62 26.5 µM | Hs-578T 29.3 µM | NCI-H23 19.1 µM | UACC-257 19.1 µM | HCT-116 16.5 µM | T47D 18.9 µM | SF-295 35.2 µM | BT-549 20.7 µM | DU-145 16.9 µM | COLO 205 19.7 µM | RPMI-8226 21.9 µM | RXF 393 13.5 µM | SNB-75 25.9 µM | HT-29 19.4 µM | MDA-MB-435 18.9 µM | NCI-H460 18.8 µM | CCRF-CEM 29.6 µM | TK-10 21.6 µM | SN12C 16.3 µM | K562 34.4 µM | M14 18.9 µM | SK-MEL-2 18.4 µM | MDA-N 19.1 µM | SK-MEL-28 38.5 µM | OVCAR-3 17.9 µM | KM12 17.5 µM | SK-OV-3 35 µM | MDA-MB-231 23.3 µM | CAKI-1 22.5 µM | HL-60 26.9 µM | U-251 16 µM | OVCAR-4 21.5 µM | EKVX 18.2 µM | PC-3 19.5 µM | MCF7 16.2 µM | SF-539 21.2 µM | HCC 2998 20 µM | UO-31 1.52 µM
19.5 µM: HCT-15

COc1ccc2c(=O)c3cc([N+](=O)[O-])ccc3n(C)c2c1
inactive: SNB-19 > 100 µM | SR > 100 µM | IGROV-1 > 100 µM | UACC-62 > 100 µM | A498 > 100 µM | MOLT-4 > 100 µM | SW-620 > 100 µM | ACHN > 100 µM | NCI-H226 > 100 µM | Malme-3M > 100 µM | A549 > 100 µM | NCI-H522 > 100 µM | SF-268 > 100 µM | OVCAR-5 > 100 µM | 786-0 > 100 µM | LOX IMVI > 100 µM | NCI/ADR-RES > 100 µM | HOP-92 > 100 µM | SK-MEL-5 > 100 µM | OVCAR-8 > 100 µM | Hs-578T > 100 µM | UACC-257 > 100 µM | T47D > 100 µM | SF-295 > 100 µM | BT-549 > 100 µM | DU-145 > 100 µM | COLO 205 > 100 µM | RPMI-8226 > 100 µM | RXF 393 > 100 µM | SNB-75 > 100 µM | MDA-MB-435 > 100 µM | NCI-H460 > 100 µM | CCRF-CEM > 100 µM | TK-10 > 100 µM | SN12C > 100 µM | K562 > 100 µM | M14 > 100 µM | SK-MEL-2 > 100 µM | MDA-N > 100 µM | SK-MEL-28 > 100 µM | OVCAR-3 > 100 µM | KM12 > 100 µM | MDA-MB-231 > 100 µM | CAKI-1 > 100 µM | HL-60 > 100 µM | U-251 > 100 µM | OVCAR-4 > 100 µM | EKVX 6.37 µM | PC-3 > 100 µM | MCF7 > 100 µM | SF-539 > 100 µM | HCC 2998 > 100 µM | UO-31 > 100 µM
> 100 µM: HCT-15

O=C1C(Br)=CC2(C=C1Br)CCNC1=C2C(=O)c2[nH]cnc2C1=O
15.6 µM: HCT-15
inactive: SR 30.1 µM | UACC-62 11.9 µM | A498 19 µM | MOLT-4 41.5 µM | SW-620 17.7 µM | ACHN 14.6 µM | NCI-H226 20.4 µM | A549 18.3 µM | NCI-H522 14.4 µM | SF-268 14.8 µM | OVCAR-5 15.9 µM | 786-0 16.4 µM | LOX IMVI 13.5 µM | NCI/ADR-RES 21.1 µM | HOP-92 12.3 µM | SK-MEL-5 11.2 µM | OVCAR-8 16.8 µM | HOP-62 17.2 µM | Hs-578T 26.3 µM | NCI-H23 12.6 µM | UACC-257 14.6 µM | HCT-116 14.7 µM | T47D 15.6 µM | SF-295 16.2 µM | BT-549 19.2 µM | DU-145 16 µM | COLO 205 21.3 µM | RPMI-8226 14.5 µM | RXF 393 16.3 µM | SNB-75 15.6 µM | HT-29 15.5 µM | MDA-MB-435 11 µM | NCI-H460 16.7 µM | CCRF-CEM 15 µM | TK-10 29.2 µM | K562 12.4 µM | M14 16.9 µM | SK-MEL-2 9.12 µM | MDA-N 1.77 µM | SK-MEL-28 16.1 µM | OVCAR-3 15.7 µM | KM12 16.9 µM | SK-OV-3 21.5 µM | MDA-MB-231 15.8 µM | CAKI-1 24.5 µM | HL-60 4.79 µM | U-251 15 µM | OVCAR-4 14.5 µM | EKVX 18.1 µM | PC-3 25.7 µM | MCF7 14.6 µM | SF-539 18.1 µM | HCC 2998 25.8 µM | UO-31 15.9 µM

CCCCOCCOC1=CC(=O)c2c(O)ccc(O)c2C1=O
inactive: SNB-19 1.75 µM | SR 1.24 µM | IGROV-1 1.91 µM | UACC-62 1.51 µM | A498 1.64 µM | MOLT-4 1.28 µM | SW-620 1.45 µM | ACHN 1.72 µM | NCI-H226 1.72 µM | A549 1.75 µM | NCI-H522 1.58 µM | SF-268 1.76 µM | 786-0 1.67 µM | LOX IMVI 1.73 µM | NCI/ADR-RES 2.12 µM | HOP-92 2.56 µM | Hs-578T 2.22 µM | NCI-H23 1.7 µM | HCT-116 1.49 µM | T47D 2.06 µM | SF-295 1.66 µM | BT-549 1.63 µM | DU-145 1.78 µM | COLO 205 1.14 µM | RPMI-8226 2.91 µM | RXF 393 1.66 µM | SNB-75 1.57 µM | HT-29 1.67 µM | NCI-H460 1.82 µM | CCRF-CEM 1.22 µM | TK-10 3.1 µM | SN12C 1.66 µM | K562 2 µM | SK-MEL-2 1.69 µM | SK-MEL-28 1.62 µM | OVCAR-3 1.67 µM | KM12 1.75 µM | SK-OV-3 > 10 µM | MDA-MB-231 1.95 µM | CAKI-1 1.78 µM | U-251 1.7 µM | OVCAR-4 1.92 µM | EKVX 1.69 µM | PC-3 2.59 µM | MCF7 1.31 µM | SF-539 1.58 µM | HCC 2998 1.88 µM | UO-31 1.64 µM
active: Malme-3M 0.24 µM | SK-MEL-5 0.216 µM | HOP-62 0.458 µM | UACC-257 1.03 µM | MDA-MB-435 0.185 µM | M14 1 µM | MDA-N 0.185 µM | HL-60 0.506 µM

N#Cc1nc(/C=C/c2ccccc2)oc1N
inactive: SNB-19 > 100 µM | IGROV-1 > 100 µM | A498 > 100 µM | MOLT-4 13.7 µM | SW-620 > 100 µM | ACHN > 100 µM | NCI-H226 > 100 µM | Malme-3M > 100 µM | A549 > 100 µM | NCI-H522 8.2 µM | SF-268 > 100 µM | OVCAR-5 > 100 µM | 786-0 > 100 µM | LOX IMVI > 100 µM | NCI/ADR-RES > 100 µM | HOP-92 > 100 µM | SK-MEL-5 > 100 µM | OVCAR-8 > 100 µM | HOP-62 > 100 µM | Hs-578T > 100 µM | NCI-H23 > 100 µM | UACC-257 > 100 µM | HCT-116 > 100 µM | T47D > 100 µM | SF-295 > 100 µM | BT-549 13.1 µM | DU-145 > 100 µM | COLO 205 > 100 µM | RPMI-8226 34.5 µM | RXF 393 > 100 µM | SNB-75 > 100 µM | HT-29 > 100 µM | MDA-MB-435 > 100 µM | NCI-H460 > 100 µM | CCRF-CEM > 100 µM | TK-10 > 100 µM | SN12C > 100 µM | K562 > 100 µM | M14 > 100 µM | SK-MEL-2 > 100 µM | MDA-N > 100 µM | SK-MEL-28 > 100 µM | OVCAR-3 > 100 µM | KM12 > 100 µM | SK-OV-3 > 100 µM | MDA-MB-231 > 100 µM | CAKI-1 > 100 µM | HL-60 > 10 µM | U-251 > 100 µM | OVCAR-4 20.7 µM | EKVX > 100 µM | PC-3 > 100 µM | MCF7 > 100 µM | SF-539 > 100 µM | HCC 2998 > 100 µM | UO-31 7.26 µM
active: SR 0.252 µM
> 100 µM: HCT-15
